From ChEMBL document CHEMBL1201862, “PubChem BioAssay data set” (2004) come the findings set out here.

Activity calls are given as the source filed them. Bounds are passed on as bounds.

Assay [1] addresses T1, Apoptotic protease-activating factor 1 (Homo sapiens, UniProt O14727).
T1 sequence (O14727 whole entry): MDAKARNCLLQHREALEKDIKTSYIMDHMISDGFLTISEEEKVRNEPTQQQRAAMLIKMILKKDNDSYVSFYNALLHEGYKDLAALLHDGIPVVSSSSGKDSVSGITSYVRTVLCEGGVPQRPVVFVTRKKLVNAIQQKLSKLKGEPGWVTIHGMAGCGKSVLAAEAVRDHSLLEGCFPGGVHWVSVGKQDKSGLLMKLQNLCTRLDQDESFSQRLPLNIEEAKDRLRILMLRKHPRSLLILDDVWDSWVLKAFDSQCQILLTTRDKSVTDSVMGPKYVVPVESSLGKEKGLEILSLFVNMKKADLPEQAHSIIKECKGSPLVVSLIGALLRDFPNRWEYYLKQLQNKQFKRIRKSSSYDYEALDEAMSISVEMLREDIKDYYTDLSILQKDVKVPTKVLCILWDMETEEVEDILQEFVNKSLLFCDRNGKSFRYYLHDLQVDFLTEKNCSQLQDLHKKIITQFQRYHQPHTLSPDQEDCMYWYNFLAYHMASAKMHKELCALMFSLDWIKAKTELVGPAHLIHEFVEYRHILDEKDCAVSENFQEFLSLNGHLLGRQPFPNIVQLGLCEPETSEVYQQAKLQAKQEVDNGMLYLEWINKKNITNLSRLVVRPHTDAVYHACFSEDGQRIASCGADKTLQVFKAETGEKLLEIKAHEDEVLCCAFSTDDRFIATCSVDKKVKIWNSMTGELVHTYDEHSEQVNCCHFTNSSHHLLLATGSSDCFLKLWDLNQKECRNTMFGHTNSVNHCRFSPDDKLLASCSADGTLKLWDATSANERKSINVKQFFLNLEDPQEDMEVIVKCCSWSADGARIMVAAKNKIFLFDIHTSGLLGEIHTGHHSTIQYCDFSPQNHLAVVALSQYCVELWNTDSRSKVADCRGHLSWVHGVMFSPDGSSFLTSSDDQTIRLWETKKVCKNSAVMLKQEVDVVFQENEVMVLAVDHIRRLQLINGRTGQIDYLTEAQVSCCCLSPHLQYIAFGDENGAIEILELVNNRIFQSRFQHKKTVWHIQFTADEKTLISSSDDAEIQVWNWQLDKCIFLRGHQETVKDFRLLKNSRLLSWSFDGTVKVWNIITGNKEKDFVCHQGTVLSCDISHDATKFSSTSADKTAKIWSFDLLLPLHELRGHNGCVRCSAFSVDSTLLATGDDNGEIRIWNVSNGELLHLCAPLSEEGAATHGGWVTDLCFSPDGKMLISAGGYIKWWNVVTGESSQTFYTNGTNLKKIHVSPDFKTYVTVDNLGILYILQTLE
In kind it is functional.

Assay [2] deals with T2, Mannose-6-phosphate isomerase (Homo sapiens, UniProt P34949).
T2 sequence (P34949 whole entry): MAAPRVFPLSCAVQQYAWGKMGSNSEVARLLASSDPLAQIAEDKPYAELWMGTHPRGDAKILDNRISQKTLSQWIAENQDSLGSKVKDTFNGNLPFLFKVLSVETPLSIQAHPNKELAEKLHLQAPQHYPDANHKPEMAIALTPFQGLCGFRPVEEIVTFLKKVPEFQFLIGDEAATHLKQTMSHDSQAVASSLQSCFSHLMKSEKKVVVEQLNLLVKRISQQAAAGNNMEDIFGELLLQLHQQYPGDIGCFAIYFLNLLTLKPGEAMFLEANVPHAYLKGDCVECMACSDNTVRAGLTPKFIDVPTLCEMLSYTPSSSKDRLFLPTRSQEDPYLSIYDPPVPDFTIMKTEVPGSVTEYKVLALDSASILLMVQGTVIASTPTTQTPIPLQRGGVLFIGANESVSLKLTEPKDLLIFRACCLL
Kind of assay: MPI inhibition at elevated mannose 6-phosphate – biochemical, fluorescence intensity, high mannose 6-phosphate, primary screen (AID 1220).

Assay [3] addresses Serine/threonine-protein phosphatase PP1-alpha catalytic subunit (Homo sapiens, UniProt P62136). Briefly: inhibition of protein phosphatase 1 activity – biochemical, fluorescence, dose response (AID 2394).
Assay [4] deals with T3, Oxysterols receptor LXR-beta (Homo sapiens, UniProt P55055).
T3 sequence (P55055 whole entry): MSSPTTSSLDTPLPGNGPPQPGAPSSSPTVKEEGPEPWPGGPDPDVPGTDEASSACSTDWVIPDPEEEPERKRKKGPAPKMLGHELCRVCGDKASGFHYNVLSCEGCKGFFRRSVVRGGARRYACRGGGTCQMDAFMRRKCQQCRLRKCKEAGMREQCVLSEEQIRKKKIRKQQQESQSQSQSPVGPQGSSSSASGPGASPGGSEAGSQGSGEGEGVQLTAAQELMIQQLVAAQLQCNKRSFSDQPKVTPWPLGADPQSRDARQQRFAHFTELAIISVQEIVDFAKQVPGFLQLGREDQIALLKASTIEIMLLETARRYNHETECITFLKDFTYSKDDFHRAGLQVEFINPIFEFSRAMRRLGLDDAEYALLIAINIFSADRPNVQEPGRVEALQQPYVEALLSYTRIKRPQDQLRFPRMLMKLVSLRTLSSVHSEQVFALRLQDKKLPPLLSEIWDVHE
The assay is classed as functional, cell-based.
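Wherever EC50 is given: agonist activity at LXR measured by a cell-based luminescence readout across a dose range, run as a counterscreen for daf-12 agonists; HEK293 cells with Gal4-LXR fusion and GAL4-driven luciferase reporter; potency for activation of Gal4-LXR reporter so compounds are agonists.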

Chain of Serine/threonine-protein phosphatase PP1-alpha catalytic subunit (P62136 whole entry): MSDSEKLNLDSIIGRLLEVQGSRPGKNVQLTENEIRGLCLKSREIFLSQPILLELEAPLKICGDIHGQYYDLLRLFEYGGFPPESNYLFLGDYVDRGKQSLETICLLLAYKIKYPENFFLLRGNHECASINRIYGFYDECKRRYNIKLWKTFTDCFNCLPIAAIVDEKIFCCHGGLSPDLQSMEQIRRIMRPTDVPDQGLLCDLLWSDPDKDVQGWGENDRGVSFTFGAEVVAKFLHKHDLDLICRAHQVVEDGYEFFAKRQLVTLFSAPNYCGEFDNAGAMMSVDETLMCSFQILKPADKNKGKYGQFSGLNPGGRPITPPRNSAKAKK

What is called IC50 is the concentration that inhibits the measured activity by half. On to `COc1ccc(/C=N/Nc2cc(N(C)C)nc(N(C)C)n2)cc1`, for which the IC50 was 2.36 µM (active) in assay [1], > 50 µM (not active) in assay [2] and > 67 µM (not active) in assay [3].
For orientation: EC50 means the midpoint of the concentration-response curve. Consider `C/C(=N\c1cccc(C)c1)c1sc2ccccc2c1O`, for which the EC50 in assay [4] is > 67.6 µM (inactive).
